From publication PMC11649115, “In vitro safety evaluation of dopamine D3R antagonist, R-VK4-116, as a potential medication for the treatment of opioid use disorder” (PLOS ONE, 2024)

Experiments:
OATP1B1 = molecular target: T1, OATP1B1 (Homo sapiens, UniProt Q9Y6L6); test: Transporter mediated assay (substrate/inhibitor), MDCK-II cells; type: in vitro ADME
T1 construct: expressed in transfected cells; host or cells: MDCK-II cells
T1 sequence (Q9Y6L6 1-691): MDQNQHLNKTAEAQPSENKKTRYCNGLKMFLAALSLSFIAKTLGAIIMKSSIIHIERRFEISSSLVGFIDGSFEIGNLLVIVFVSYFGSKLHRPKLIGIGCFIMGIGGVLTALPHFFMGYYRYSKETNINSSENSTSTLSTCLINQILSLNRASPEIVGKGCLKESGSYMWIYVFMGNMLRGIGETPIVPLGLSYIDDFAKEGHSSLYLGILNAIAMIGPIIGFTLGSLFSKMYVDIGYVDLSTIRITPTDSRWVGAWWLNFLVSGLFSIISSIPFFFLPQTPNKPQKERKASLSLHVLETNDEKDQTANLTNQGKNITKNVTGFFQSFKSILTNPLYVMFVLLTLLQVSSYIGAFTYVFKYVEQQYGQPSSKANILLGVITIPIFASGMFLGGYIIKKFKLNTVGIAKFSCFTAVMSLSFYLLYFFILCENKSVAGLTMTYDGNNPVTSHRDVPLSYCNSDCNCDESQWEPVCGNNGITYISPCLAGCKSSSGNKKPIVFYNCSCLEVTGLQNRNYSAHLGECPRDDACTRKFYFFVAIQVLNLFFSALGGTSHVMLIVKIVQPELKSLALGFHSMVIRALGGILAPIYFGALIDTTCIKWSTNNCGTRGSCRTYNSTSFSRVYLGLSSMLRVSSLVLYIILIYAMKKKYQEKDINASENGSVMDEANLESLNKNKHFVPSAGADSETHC
Experimental: (§1) The MDCK-II cells were treated to express the transporter of interest. The transport of each probe substrate was determined by radiometric detection (Fig 1 in S1 File). […] For the uptake assay, the net transporter-mediated uptake-rate (V) of the substrate by each SLC transporter was calculated as follows: Transporter–mediatedupdaterate(pmol/min/cm^2)=(Cellularaccumulationincellsexpressingthetransporter)−(Meancellularaccumulationincontrolcells)/Surfacearea×incubationtime
(§2) Fold of activity and percent inhibition were determined as follows: Foldofactivity=(Meanuptakerate)transporterexpressingcells/(Meanuptakerate)controlcells Percentinhibition=100−100×(Transport‐mediatedupdaterate)withinhibitor/(Transport‐mediatedupdaterate)vehiclecontrol

MATE1 = molecular target: T2, MATE1 (Homo sapiens, UniProt Q96FL8); test: as above; type: in vitro ADME
T2 construct: expressed in transfected cells; host or cells: MDCK-II cells
T2 sequence (Q96FL8 1-570): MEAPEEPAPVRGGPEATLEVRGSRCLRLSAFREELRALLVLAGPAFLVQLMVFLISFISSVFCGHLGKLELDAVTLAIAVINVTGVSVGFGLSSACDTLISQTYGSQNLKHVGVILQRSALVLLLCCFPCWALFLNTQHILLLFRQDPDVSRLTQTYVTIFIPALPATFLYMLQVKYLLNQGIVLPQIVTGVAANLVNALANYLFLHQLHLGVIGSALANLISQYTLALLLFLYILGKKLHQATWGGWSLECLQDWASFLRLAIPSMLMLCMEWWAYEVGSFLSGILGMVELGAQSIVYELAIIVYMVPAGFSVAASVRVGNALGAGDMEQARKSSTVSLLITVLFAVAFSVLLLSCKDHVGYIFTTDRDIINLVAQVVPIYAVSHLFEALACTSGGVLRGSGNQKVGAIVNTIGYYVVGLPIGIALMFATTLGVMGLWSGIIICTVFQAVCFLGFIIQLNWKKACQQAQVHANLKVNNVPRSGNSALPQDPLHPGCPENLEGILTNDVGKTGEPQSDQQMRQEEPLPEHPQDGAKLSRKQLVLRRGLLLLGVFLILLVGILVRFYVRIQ
Experimental: as §1, §2

MATE2-K = molecular target: T3, MATE2-K (Homo sapiens, UniProt Q86VL8); test: as above; type: in vitro ADME
T3 construct: expressed in transfected cells; host or cells: MDCK-II cells
Experimental: The MDCK-II cells were treated to express the transporter of interest. […] For the uptake assay, the net transporter-mediated uptake-rate (V) of the substrate by each SLC transporter was calculated as follows: Transporter–mediatedupdaterate(pmol/min/cm^2)=(Cellularaccumulationincellsexpressingthetransporter)−(Meancellularaccumulationincontrolcells)/Surfacearea×incubationtime
as §2

HepG2 cells = test: Lysosomal trapping assay (Lyso-ID Red); type: cell-based; settings: HepG2, 0.1, 1.0, and 10.0 μM, up to 72 hr
Experimental: After incubation timepoint, the treated cells were washed and incubated with fluorescent dual color detection reagent for 60 min. Subsequently, the fluorescence was measured with Spectramax ID5. An increase in red signal without significant loss (no more than 30%) of the blue signal indicates the accumulation of test article within the cells arising from an increase in lysosome or lysosome-like vesicles in size and/or number. The assay results were presented as fluorescence fold change for red stain and blue stain individually and were calculated as follows: Fluorescencefoldchange=RelativeFluorescenceUnit(RFU)measuredfortestarticleconcentration/RFUmeasuredforrespectivesolventcontrol
The acceptance criteria for significant lysosomal perturbation was a ≥ 2-fold increase in red fluorescence with no loss of blue fluorescence.

[1] = Metabolic stability in hepatocyte; settings: Sprague Dawley, rat, hepatocytes in suspension
Experimental: (§3) CYP3A4 substrate Midazolam (10 μM) was prepared and incubated in the same manner. […] In addition, in vitro half-life (t1/2, min) and intrinsic clearance (CLint, μl/min/10^6 cells) were calculated [10, 11].

rat hepatocytes = test: Metabolic stability in hepatocyte; settings: rat hepatocytes
Experimental: as §3

[2] = Metabolic stability in liver microsomes; settings: human, pH 7.4
[3] = Metabolic stability in liver microsomes; settings: monkey, pH 7.4
CYP2B6 mRNA = test: CYP induction, mRNA, primary cultured human hepatocytes; settings: primary cultured human hepatocytes, Fold Induction (CYP2B6 mRNA expression)
Text: (§4) Rifampicin as a positive control and solvent (0.1% DMSO) vehicle control were also included. The acceptance criteria for CYP induction was ≥ 2-fold induction for significant CYP activity, while the acceptance criteria for CYP mRNA was ≥ 4-fold for significant CYP induction.

CYP2B6 = test: as above; settings: primary cultured human hepatocytes, Fold Induction (CYP2B6 mRNA expression)
Text: as §4

[4] = heat-inactivated liver microsomes

T3 sequence (Q86VL8 1-566 isoform Q86VL8-3): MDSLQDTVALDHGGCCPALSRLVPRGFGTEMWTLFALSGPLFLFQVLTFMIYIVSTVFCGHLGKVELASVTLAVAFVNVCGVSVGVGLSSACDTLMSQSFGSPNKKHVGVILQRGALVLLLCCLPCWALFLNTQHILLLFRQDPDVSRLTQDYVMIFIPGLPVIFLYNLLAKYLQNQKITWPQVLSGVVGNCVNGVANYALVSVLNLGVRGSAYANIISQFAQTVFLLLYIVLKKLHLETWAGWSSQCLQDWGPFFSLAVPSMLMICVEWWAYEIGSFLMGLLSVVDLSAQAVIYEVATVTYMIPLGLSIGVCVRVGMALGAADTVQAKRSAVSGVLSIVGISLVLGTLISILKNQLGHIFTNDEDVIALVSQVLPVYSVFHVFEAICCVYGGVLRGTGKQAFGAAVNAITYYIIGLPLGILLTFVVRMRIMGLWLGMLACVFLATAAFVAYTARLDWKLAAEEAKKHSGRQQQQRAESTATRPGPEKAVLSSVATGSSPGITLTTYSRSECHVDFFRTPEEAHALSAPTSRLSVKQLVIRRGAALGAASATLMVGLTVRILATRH

CCc1cc(Cl)c(OC)c(N2CCN(CC(O)CCNC(=O)c3cc4ccccc4[nH]3)CC2)c1 (centres unmarked) [R-VK4-116, N-(4-(4-(3-chloro-5-ethyl-2-methoxyphenyl)piperazin-1-yl)-3-hydroxybutyl)-1H-indole-2-carboxamide]
fold difference in mean uptake rate (substrate test) (OATP1B1; OATP1B1, 1 μM, transporter cells vs control cells): < 2 fold | Inhibition (%) (OATP1B1; OATP1B1, 0.1% BSA, 10 μM): no statistically significant inhibition | inhibition at 10 µM (OATP1B1; human, polarized monolayer of MDCK-II cells expressing OATP1B1, OATP1B1, 0.1% BSA, 10 μM): 5.5 ± 17.3% | fold difference in mean uptake rate (substrate test) (MATE1; MATE1, 1 μM, transporter cells vs control cells): < 2 fold | inhibition at 10 µM (MATE1; human, polarized monolayer of MDCK-II cells expressing MATE1, MATE1, 0.1% BSA, 10 μM): 19.4 ± 7.57% | fold difference in mean uptake rate (substrate test) (MATE2-K; 1 μM, transporter cells vs control cells): < 2 fold | inhibition at 10 µM (MATE2-K; human, polarized monolayer of MDCK-II cells expressing MATE2-K, 0.1% BSA, 10 μM): 37.8 ± 9.26% | red lysosomal stain signal / blue nuclear stain signal over solvent control (HepG2 cells): No significant increase in red lysosomal stain signal or decrease in blue nuclear stain signal | half-life at 0.5 μM [1]: 1.44 h | half-life at 10 μM [1]: 2.82 h | hepatocyte CLint at 0.5 μM [1]: 16 µL/min/1e6 cells | hepatocyte CLint at 10 μM [1]: 8.2 µL/min/1e6 cells | % remaining Vs T = 0 min (rat hepatocytes; 0.5 μM, 0 min): 100.0% | % remaining Vs T = 0 min (rat hepatocytes; 0.5 μM, 30 min): 85.0% | % remaining Vs T = 0 min (rat hepatocytes; 0.5 μM, 60 min): 55.6% | % remaining Vs T = 0 min (rat hepatocytes; 0.5 μM, 90 min): 42.4% | % remaining Vs T = 0 min (rat hepatocytes; 0.5 μM, 120 min): 42.5% | % remaining Vs T = 0 min (rat hepatocytes; 10 μM, 0 min): 100.0% | % remaining Vs T = 0 min (rat hepatocytes; 10 μM, 30 min): 95.8% | % remaining Vs T = 0 min (rat hepatocytes; 10 μM, 60 min): 92.5% | % remaining Vs T = 0 min (rat hepatocytes; 10 μM, 90 min): 66.7% | % remaining Vs T = 0 min (rat hepatocytes; 10 μM, 120 min): 64.6% | remaining at 0 h, 1 μM [2, 4]: 100% | remaining at 0 h, 10 μM [2, 4]: 100% | remaining at 2 h, 1 μM [2, 4]: 96.7% | remaining at 2 h, 10 μM [2, 4]: 95.1% | remaining at 0 h, 1 μM ([2]; liver microsomes): 100% | remaining at 0 h, 10 μM ([2]; liver microsomes): 100% | remaining at 0.5 h, 1 μM ([2]; liver microsomes): 41.1% | remaining at 0.5 h, 10 μM ([2]; liver microsomes): 69.7% | remaining at 1 h, 1 μM ([2]; liver microsomes): 25.9% | remaining at 1 h, 10 μM ([2]; liver microsomes): 60.1% | remaining at 1.5 h, 1 μM ([2]; liver microsomes): 22.3% | remaining at 1.5 h, 10 μM ([2]; liver microsomes): 55.5% | remaining at 2 h, 1 μM ([2]; liver microsomes): 16.4% | remaining at 2 h, 10 μM ([2]; liver microsomes): 48.9% | remaining at 0 h, 1 μM [3, 4]: 100% | remaining at 0 h, 10 μM [3, 4]: 100% | remaining at 2 h, 1 μM [3, 4]: 90% | remaining at 2 h, 10 μM [3, 4]: 89.9% | remaining at 0 h, 1 μM ([3]; liver microsomes): 100% | remaining at 0 h, 10 μM ([3]; liver microsomes): 100% | remaining at 0.5 h, 1 μM ([3]; liver microsomes): 32% | remaining at 0.5 h, 10 μM ([3]; liver microsomes): 60.1% | remaining at 1 h, 1 μM ([3]; liver microsomes): 21.2% | remaining at 1 h, 10 μM ([3]; liver microsomes): 46.5% | remaining at 1.5 h, 1 μM ([3]; liver microsomes): 17.5% | remaining at 1.5 h, 10 μM ([3]; liver microsomes): 42.1% | remaining at 2 h, 1 μM ([3]; liver microsomes): 15% | remaining at 2 h, 10 μM ([3]; liver microsomes): 39.7% | fold induction at 48 h, 10 µM (CYP2B6 mRNA; hepatocyte Lot 336, 10 µM): 1.9 | fold induction at 48 h, 0.01 µM (CYP2B6 mRNA; hepatocyte Lot 348B, 0.01 µM): 0.98 | fold induction at 48 h, 0.1 µM (CYP2B6 mRNA; hepatocyte Lot 348B, 0.1 µM): 1.2 | fold induction at 48 h, 1 µM (CYP2B6 mRNA; hepatocyte Lot 348B, 1 µM): 1 | fold induction at 48 h, 3 µM (CYP2B6 mRNA; hepatocyte Lot 348B, 3 µM): 1.1 | fold induction at 48 h, 5 µM (CYP2B6 mRNA; hepatocyte Lot 348B, 5 µM): 1.1 | fold induction at 48 h, 10 µM (CYP2B6 mRNA; hepatocyte Lot 348B, 10 µM): 1.1 | fold induction at 48 h, 0.01 µM (CYP2B6 mRNA; hepatocyte Lot 399, 0.01 µM): 1.1 | fold induction at 48 h, 0.01 µM (CYP2B6; hepatocyte Lot 336, 0.01 µM): 1 | fold induction at 48 h, 0.1 µM (CYP2B6; hepatocyte Lot 336, 0.1 µM): 1 | fold induction at 48 h, 1 µM (CYP2B6; hepatocyte Lot 336, 1 µM): 1.3 | fold induction at 48 h, 3 µM (CYP2B6; hepatocyte Lot 336, 3 µM): 1.9 | fold induction at 48 h, 5 µM (CYP2B6; hepatocyte Lot 336, 5 µM): 1.8 | fold induction at 48 h, 0.1 µM (CYP2B6; hepatocyte Lot 399, 0.1 µM): 1.2 | fold induction at 48 h, 1 µM (CYP2B6; hepatocyte Lot 399, 1 µM): 1.2 | fold induction at 48 h, 3 µM (CYP2B6; hepatocyte Lot 399, 3 µM): 1.3 | fold induction at 48 h, 5 µM (CYP2B6; hepatocyte Lot 399, 5 µM): 1.2 | fold induction at 48 h, 10 µM (CYP2B6; hepatocyte Lot 399, 10 µM): 1.2
